Measurements from US12486272B2 (NIHON NOHYAKU CO., LTD., priority 2019, dated 2025).

Tests used:
[1] = test system: Haemonchus contortus; assay: Larval motility assay on Haemonchus contortus; conditions: 96 h, L1 stage larvae, 4 days, relative to DMSO only, read-out: percent motility inhibition
Method: Larval Motility Assay on Haemonchus contortus DMSO diluted solutions of various compounds of the present invention were added at the final concentration of 50 ppm to the wells of a 96-well plate containing a predetermined conditioned medium. Twenty L1 stage larvae of H. contortus were introduced into each well of the 96-well plate. The plate was allowed to stand for 4 days, and then larval motility was examined. The percent motility inhibition in the wells of each treatment was calculated relative to the wells of treatment with DMSO only.

[2] = test system: Dirofilaria immitis; assay: Larval motility assay on Dirofilaria immitis; conditions: 72 h, L1 stage larvae, 3 days, relative to DMSO only, read-out: percent motility inhibition
Method: Larval Motility Assay on Dirofilaria immitis
Five hundred L1 stage larvae of D. immitis were diluted in a predetermined conditioned medium and introduced into each well of a 96-well plate. DMSO diluted solutions of various compounds of the present invention were added at the final concentration of 50 ppm to the wells of the 96-well plate. The plate was allowed to stand for 3 days, and then larval motility was examined. The percent motility inhibition in the wells of each treatment was calculated relative to the wells of treatment with DMSO only.

[3] = test system: Ctenocephalides felis; assay: whole plant or invertebrate; format: in vivo; conditions: 50 ppm in bovine blood, oral via feeder, adults, following day, read-out: mortality rate
[4] = test system: Rhipicephalus sanguineus; assay: Assay for transdermal parasiticidal activity against nymphs of Rhipicephalus sanguineus; format: in vivo; conditions: 48 h, read-out: mortality rate
Excerpt: Assay for Transdermal Parasiticidal Activity Against Nymphs of Rhipicephalus sanguineus
DMSO diluted solutions of various compounds of the present invention were individually diluted to the final concentration of 100 ppm with an acetone/triton mixture and applied to the inside of vented sample bottles. After overnight drying, ten nymphs of R. sanguineus were introduced into each bottle, and the mortality rate was examined two days later. Aberrant adults were regarded as the dead.

Molecule CCS(=O)(=O)c1cc(/C(=N/OCCSC)OC)cnc1-c1nc2cc(C(F)(F)C(F)(F)F)nnc2n1C [Compound 1-1, methyl 5-ethylsulfonyl-N-(2-methylthioethoxy)-6-(6-pentafluoroethyl-3-methyl-3H-imidazo[4,5-c]pyridazin-2-yl)nicotinimidate] has an inhibition at 50 ppm [1] of no less than 50%, an inhibition at 50 ppm [2] of no less than 50% and a mortality at 50 ppm [3] of no less than 50%. The mortality at 100 ppm [4] was no less than 50%.
CCS(=O)(=O)c1cc(/C(Br)=N/OCCSC)cnc1-c1nc2cc(C(F)(F)C(F)(F)F)nnc2n1C [Compound 1-16] showed an inhibition at 50 ppm [2] of no less than 50%.
For CCS(=O)(=O)c1cc(/C(=N/OCCSC)n2cncn2)cnc1-c1nc2cc(C(F)(F)C(F)(F)F)nnc2n1C [Compound 1-22], the inhibition at 50 ppm [1] was no less than 50%, the inhibition at 50 ppm [2] was no less than 50% and the mortality at 50 ppm [3] was no less than 50%.
CCS(=O)(=O)c1cc(/C(=N/OCCSC)SC)cnc1-c1nc2cc(C(F)(F)C(F)(F)F)nnc2n1C [Compound 1-19, Methyl 5-ethylsulfonyl-N-(2-methylthioethoxy)-6-(6-pentafluoroethyl-3-methyl-3H-imidazo[4,5-c]pyridazin-2-yl)nicotinyl thioimidate] was tested, and the inhibition at 50 ppm [1] was no less than 50%, the inhibition at 50 ppm [2] was no less than 50% and the mortality at 100 ppm [4] was no less than 50%.
In the case of CCS(=O)(=O)c1cc(/C(=N/OCCS(C)(=O)=O)OC)cnc1-c1nc2cc(C(F)(F)C(F)(F)F)nnc2n1C [Compound 1-3, Methyl 5-ethylsulfonyl-N-(2-methylsulfonylethoxy)-6-(6-pentafluoroethyl-3-methyl-3H-imidazo[4,5-c]pyridazin-2-yl)nicotinimidate], the inhibition at 50 ppm [1] is reported as no less than 50%, the inhibition at 50 ppm [2] is reported as no less than 50% and the mortality at 50 ppm [3] is reported as no less than 50%.
